According to ChEMBL document CHEMBL2380247, “Synthesis and biological evaluation of novel aliphatic amido-quaternary ammonium salts for anticancer chemotherapy: part II” (2013):
Activity calls are given as the source filed them. No cut-off for these calls is given here.

Assays:
NUGC-3 [1] = test: Antiproliferative activity against human NUGC3 cells at 0.3 uM by SRB assay; type: functional
NUGC-3 [2] = test: Antiproliferative activity against human NUGC3 cells at 0.1 uM by SRB assay; type: functional
NUGC-3 [3] = test: Antiproliferative activity against human NUGC3 cells at 1 uM by SRB assay; type: functional
NUGC-3 [4] = test: Antiproliferative activity against human NUGC3 cells at 10 uM by SRB assay; type: functional
NUGC-3 [5] = test: Antiproliferative activity against human NUGC3 cells at 3 uM by SRB assay; type: functional
MDA-MB-231 [6] = test: Antiproliferative activity against human MDA-MB-231 cells at 0.1 uM by SRB assay; type: functional
MDA-MB-231 [7] = test: Antiproliferative activity against human MDA-MB-231 cells at 0.3 uM by SRB assay; type: functional
MDA-MB-231 [8] = test: Antiproliferative activity against human MDA-MB-231 cells at 1 uM by SRB assay; type: functional
MDA-MB-231 [9] = test: Antiproliferative activity against human MDA-MB-231 cells at 10 uM by SRB assay; type: functional
MDA-MB-231 [10] = test: Antiproliferative activity against human MDA-MB-231 cells at 3 uM by SRB assay; type: functional
ACHN [11] = test: Antiproliferative activity against human ACHN cells at 0.1 uM by SRB assay; type: functional
ACHN [12] = test: Antiproliferative activity against human ACHN cells at 1 uM by SRB assay; type: functional
ACHN [13] = test: Antiproliferative activity against human ACHN cells at 0.3 uM by SRB assay; type: functional
ACHN [14] = test: Antiproliferative activity against human ACHN cells at 3 uM by SRB assay; type: functional
ACHN [15] = test: Antiproliferative activity against human ACHN cells at 10 uM by SRB assay; type: functional
NCI-H23 [16] = test: Antiproliferative activity against human NCI-H23 cells at 0.3 uM by SRB assay; type: functional
NCI-H23 [17] = test: Antiproliferative activity against human NCI-H23 cells at 0.1 uM by SRB assay; type: functional
NCI-H23 [18] = test: Antiproliferative activity against human NCI-H23 cells at 3 uM by SRB assay; type: functional
NCI-H23 [19] = test: Antiproliferative activity against human NCI-H23 cells at 1 uM by SRB assay; type: functional
NCI-H23 [20] = test: Antiproliferative activity against human NCI-H23 cells at 10 uM by SRB assay; type: functional
PC-3 [21] = test: Antiproliferative activity against human PC3 cells at 0.1 uM by SRB assay; type: functional
PC-3 [22] = test: Antiproliferative activity against human PC3 cells at 1 uM by SRB assay; type: functional
PC-3 [23] = test: Antiproliferative activity against human PC3 cells at 0.3 uM by SRB assay; type: functional
PC-3 [24] = test: Antiproliferative activity against human PC3 cells at 3 uM by SRB assay; type: functional
HCT-15 [25] = test: Antiproliferative activity against human HCT15 cells at 0.1 uM by SRB assay; type: functional
PC-3 [26] = test: Antiproliferative activity against human PC3 cells at 10 uM by SRB assay; type: functional
HCT-15 [27] = test: Antiproliferative activity against human HCT15 cells at 0.3 uM by SRB assay; type: functional
HCT-15 [28] = test: Antiproliferative activity against human HCT15 cells at 3 uM by SRB assay; type: functional
HCT-15 [29] = test: Antiproliferative activity against human HCT15 cells at 1 uM by SRB assay; type: functional
HCT-15 [30] = test: Antiproliferative activity against human HCT15 cells at 10 uM by SRB assay; type: functional
NCI-H23 [31] = test: Antiproliferative activity against human NCI-H23 cells by SRB assay; type: functional
NUGC-3 [32] = test: Antiproliferative activity against human NUGC3 cells by SRB assay; type: functional
HCT-15 [33] = test: Antiproliferative activity against human HCT15 cells by SRB assay; type: functional
ACHN [34] = test: Antiproliferative activity against human ACHN cells by SRB assay; type: functional
MDA-MB-231 [35] = test: Antiproliferative activity against human MDA-MB-231 cells by SRB assay; type: functional
PC-3 [36] = test: Antiproliferative activity against human PC3 cells by SRB assay; type: functional
[37] = biological target: Rho-related GTP-binding protein RhoB (Homo sapiens) (UniProt P62745); test: Transactivation of RhoB in human HeLa cells by luciferase reporter assay; type: cell-based
Chain of Rho-related GTP-binding protein RhoB (Homo sapiens) (P62745 whole entry): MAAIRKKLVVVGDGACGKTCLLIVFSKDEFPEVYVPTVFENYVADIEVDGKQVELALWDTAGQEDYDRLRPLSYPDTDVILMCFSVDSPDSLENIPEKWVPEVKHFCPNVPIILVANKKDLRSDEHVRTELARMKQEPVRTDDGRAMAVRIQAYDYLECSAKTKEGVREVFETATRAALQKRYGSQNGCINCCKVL

| GI50 (NCI-H23 [31]) | GI50 (ACHN [34]) | GI50 (MDA-MB-231 [35]) | GI50 (PC-3 [36]) | Compound | growth, % of control at 0.3 µM (NUGC-3 [1]) | growth, % of control at 0.1 µM (NUGC-3 [2]) | growth, % of control at 1 µM (NUGC-3 [3]) | growth, % of control at 10 µM (NUGC-3 [4]) | growth, % of control at 3 µM (NUGC-3 [5]) | growth, % of control at 0.1 µM (MDA-MB-231 [6]) | growth, % of control at 0.3 µM (MDA-MB-231 [7]) | growth, % of control at 1 µM (MDA-MB-231 [8]) | growth, % of control at 10 µM (MDA-MB-231 [9]) | growth, % of control at 3 µM (MDA-MB-231 [10]) | growth, % of control at 0.1 µM (ACHN [11]) | growth, % of control at 1 µM (ACHN [12]) | growth, % of control at 0.3 µM (ACHN [13]) | growth, % of control at 3 µM (ACHN [14]) | growth, % of control at 10 µM (ACHN [15]) | GI50 (NUGC-3 [32]) | also measured |
| --- | --- | --- | --- | --- | --- | --- | --- | --- | --- | --- | --- | --- | --- | --- | --- | --- | --- | --- | --- | --- | --- |
| 780 nM | 1020 nM | 1380 nM | 490 nM | CCCCCCCCCCCCCCCC(=O)N(C)CCC[N+](C)(C)CC | 77.8% | 101% | 7.32% | -37.1% | -18.5% | 98.7% | 97.7% | 73.3% | 19% | 47.2% | 95.1% | 62.3% | 95% | 41.5% | 15.7% | 220 nM | growth, % of control at 0.3 µM (NCI-H23 [16]): 100%; growth, % of control at 0.1 µM (NCI-H23 [17]): 103%; growth, % of control at 3 µM (NCI-H23 [18]): 31.2%; growth, % of control at 1 µM (NCI-H23 [19]): 62.9%; growth, % of control at 10 µM (NCI-H23 [20]): -15.5%; growth, % of control at 0.1 µM (PC-3 [21]): 105%; growth, % of control at 1 µM (PC-3 [22]): 44.6%; growth, % of control at 0.3 µM (PC-3 [23]): 101%; growth, % of control at 3 µM (PC-3 [24]): 1.57%; growth, % of control at 0.1 µM (HCT-15 [25]): 95.6%; growth, % of control at 10 µM (PC-3 [26]): -17.2%; growth, % of control at 0.3 µM (HCT-15 [27]): 98.3%; growth, % of control at 3 µM (HCT-15 [28]): 69.2%; growth, % of control at 1 µM (HCT-15 [29]): 84.4%; growth, % of control at 10 µM (HCT-15 [30]): 40.3%; GI50 (HCT-15 [33]): 3420 nM |
| 880 nM | 500 nM | 680 nM | 370 nM | C=CC[N+]1(CC)CCN(C(=O)CCCCCCCCCCCCCCC)CC1 |  |  |  |  |  |  |  |  |  |  |  |  |  |  |  | 270 nM | Activity [37]: Active |
| 460 nM | 1890 nM | 1350 nM | 310 nM | C=CC[N+](C)(C)CCCN(C)C(=O)CCCCCCCCCCCCC | 82.8% | 80.1% | 32.1% | -1.98% | 4.58% | 99.8% | 98.9% | 86.8% | 15.5% | 48.3% | 104% | 96% | 96.8% | 67% | 14.3% | 280 nM | growth, % of control at 0.3 µM (NCI-H23 [16]): 85.7%; growth, % of control at 0.1 µM (NCI-H23 [17]): 88.5%; growth, % of control at 3 µM (NCI-H23 [18]): 12.2%; growth, % of control at 1 µM (NCI-H23 [19]): 55.6%; growth, % of control at 10 µM (NCI-H23 [20]): -7.17%; growth, % of control at 0.1 µM (PC-3 [21]): 93.3%; growth, % of control at 1 µM (PC-3 [22]): 35.4%; growth, % of control at 0.3 µM (PC-3 [23]): 82.3%; growth, % of control at 3 µM (PC-3 [24]): -10.8%; growth, % of control at 0.1 µM (HCT-15 [25]): 90.4%; growth, % of control at 10 µM (PC-3 [26]): -20.4%; growth, % of control at 0.3 µM (HCT-15 [27]): 82.4%; growth, % of control at 3 µM (HCT-15 [28]): 79.4%; growth, % of control at 1 µM (HCT-15 [29]): 92.8%; growth, % of control at 10 µM (HCT-15 [30]): 53.2%; GI50 (HCT-15 [33]): > 10000 nM |
| 170 nM | 350 nM | 440 nM | 200 nM | C=CC[N+](CC)(CC)CCN(C)C(=O)CCCCCCCCCCCCCCC | 76.9% | 101% | 22.9% | -6.2% | 5.3% | 96.1% | 92.5% | 38.7% | -6.4% | 21% | 115% | 30.2% | 87.7% | 8.1% | -18.9% | 270 nM | growth, % of control at 0.3 µM (NCI-H23 [16]): 54.8%; growth, % of control at 0.1 µM (NCI-H23 [17]): 81.2%; growth, % of control at 3 µM (NCI-H23 [18]): 10.7%; growth, % of control at 1 µM (NCI-H23 [19]): 19.3%; growth, % of control at 10 µM (NCI-H23 [20]): -15%; growth, % of control at 0.1 µM (PC-3 [21]): 92.9%; growth, % of control at 1 µM (PC-3 [22]): 0.8%; growth, % of control at 0.3 µM (PC-3 [23]): 81.8%; growth, % of control at 3 µM (PC-3 [24]): -14.3%; growth, % of control at 0.1 µM (HCT-15 [25]): 86.1%; growth, % of control at 10 µM (PC-3 [26]): -19.6%; growth, % of control at 0.3 µM (HCT-15 [27]): 87.9%; growth, % of control at 3 µM (HCT-15 [28]): 55.2%; growth, % of control at 1 µM (HCT-15 [29]): 78.6%; growth, % of control at 10 µM (HCT-15 [30]): 32%; GI50 (HCT-15 [33]): 1980 nM |
